Data taken from patent US9914750B2, “Synthetic peptides and peptide mimetics” (University of Louisville Research Foundation, priority 2007, dated 2018).
“Also recorded” adds a separate entry of the source. Read-outs that look alike come from different tables or passages of the source. No end group written: not given here.

What was measured:
RAW 264.7 cells [1] = experiment: Assay for inflammation: TNFα secretion with peptides alone (ELISA); format: cell-based, mouse
Description: (§1) FIGS. 15A and 15B. FIG. 15A. Inhibition of endotoxin-stimulated TNFα secretion. RAW 264.7 macrophage cells were stimulated with 100 ng/ml LPS in the presence or absence of the PSP-derived peptides GK7, KL11 or GL13 (200 μg/ml). Polymyxin B (PMX) was used as a positive control. Further controls consisted of peptides alone without LPS stimulation. TNFα secretion was analyzed by ELISA of the RAW culture medium. The data are from triplicate RAW culture dishes for each condition. *) different from LPS alone P<0.03, **) P<0.0002. FIG. 15B. Dose response curve for the inhibition of LPS-induced TNFα secretion by GL-13.
To determine if the PSP peptides cause an inflammatory response in RAW 264.7 cells, the cells were incubated with each peptide for 24 h and TNFα secretion was quantitated by ELISA.
The vaccine adjuvant monophosphoryl lipid A (MPLA) a low-toxicity derivative of LPS was used to stimulate RAW cells in the presence or absence of PSP peptides (200 μg/ml) or the anti-inflammatory peptide polymyxin B (PMX). Control samples were incubated with the peptides alone.

C57BL/6 mice = experiment: LPS sepsis model, D-galactosamine sensitized mice; format: in vivo
Description: FIG. 18. GL-13 Protects Mice in an LPS Sepsis Model. C57BL/6 mice were sensitized with D-galactosamine and injected with 100 ng/mouse (50 μg/kg) of P. aeruginosa LPS that had been preincubated for 1 h RT with or without 100 μg/mouse of GL-13. Controls received LPS and 0.9% saline. […] The results are from two independent experiments.
C57BL/6 mice were sensitized with D-galactosamine and injected with 100 ng/mouse (50 μg/kg) of P. aeruginosa LPS that had been preincubated for 1 h RT with or without 100 μg/mouse of GL-13 (FIG. 18). Controls received LPS and 0.9% saline. […] The results are from two independent experiments.

RAW 264.7 cells [2] = experiment: Cell death assay, trypan blue; format: cell-based, mouse; settings: 200 μg/ml, 24 h
Description: FIG. 21: RAW Cell Viability. RAW 264.7 cells were incubated with 200 μg/ml of PSP peptides for 24 h. At the end of the incubation period the cells were stained with trypan blue and photographed in the light microscope. No significant cell death was detected with any of the peptides.
The inventors have used three different assays for analysis of cytotoxicity in mammalian cells: trypan blue exclusion, […], and ATP production. Experiments have been performed with rat pituitary GH4C1 cells and mouse RAW 264.7 cells. The cells were incubated with PSP peptides for 24 h followed by staining with trypan blue to identify permeabilized and dead cells. […] Clear cytotoxicity was noted when the cells were incubated with LPS.
RAW 264.7 cells were incubated with 200 μg/ml of PSP peptides for 24 h. At the end of the incubation period the cells were stained with trypan blue and photographed in the light microscope. No significant cell death was detected with any of the peptides (FIG. 21).

sheep red blood cells = experiment: Hemagglutination assay; format: cell-based; settings: PBS, absence of serum, 2 h
Description: FIG. 22: Hemagglutination of sheep red blood cells. RBCs were washed in PBS and incubated for 2 h in microtiter plates in PBS±5% fetal calf serum. Peptide concentrations were 83 μg/ml. The microtiter plate was imaged. Agglutinated red blood cells form a wide mat of cells, while non-agglutinated cells form a button shaped pellet.
Briefly, unmodified sheep erythrocytes (Cappel, M P Biomedicals, Irvine, Calif.) were washed in PBS and suspended at 1% in PBS. Diluted erythrocytes and 20 μg/ml of each peptide in PBS were mixed in polypropylene microtiter plates (120 μl per well) and incubated for 2 h at 35° C. The plates were imaged on a Kodak Image station.

[3] = preliminary results; mice I.P. injection
P. aeruginosa = experiment: Antibacterial activity in vivo, Romaine lettuce infection model; set-up: species or system Pseudomonas aeruginosa; settings: 200 μg/ml peptide injected with bacteria, scored after 2-3 days
Description: FIG. 4: Antibacterial activity in vivo. Romaine lettuce leaves were injected with P. aeruginosa (10^8 cells/nil) in the presence or absence of 200 μg/ml of antibacterial peptides. After 2-3 days incubation the injection sites were scored for infection on a scale of 0-100% relative to the no-bacteria (0% infection) and bacteria-only controls (PAO1) (100%). Data are from six independent experiments and are shown as mean±SEM, N=4−12. *) P<0.04, **) P<0.003.
Romaine lettuce heads were purchased from local grocery stores. Outer leaves were removed and undamaged leaves were selected. The leaves were rinsed in 0.1% bleach and incubated in plastic containers on filter paper moistened with 10 mM MgSO4. Overnight cultures of P. aeruginosa were diluted to 10^8 CFU/ml in 10 mM MgSO4 and supplemented with 200 μg/ml of each peptide. Ten μl (10^6 CFU, 2 μg peptide) were injected into the midrib of each leaf using a micro pipetter. Blank controls were incubated with buffer only, and bacterial controls were incubated without peptide. The plastic trays were covered and incubated at 35° C. Leaves were inspected daily for browning around the injection site or along the midrib. Generally rotting or moldy leaves were discarded. Infection was scored on a scale from 0% to 100% relative to blank controls and bacterial controls, respectively.

P. aeruginosa PAO1 = experiment: Biofilm formation / bacterial adhesion assay, PVC microtiter plates, crystal violet; format: cell-based, Pseudomonas aeruginosa; settings: 50 μg/ml, 6 h, aerobic
Description: FIGS. 7A and 7B: PSP-peptides inhibit biofilm formation. P. aeruginosa PAO1 (overnight cultures, diluted 1:100 were incubated with 50 μg/ml of each peptide (LL37, GK7, GL13, KL11) or lysozyme for 6 h under aerobic (FIG. 7A) or reduced oxygen (anaerobic) (FIG. 7B) conditions. The OD 570 (growth) was determined and the attached cells were then quantitated by staining with crystal violet (biofilm). Growth and biofilm values were normalized against the mean of samples without peptides (HOAc) and expressed as mean±SEM. The data in panel A are from three independent experiments, N=22−24. The data in panel B are from two independent experiments, N=16. Lysozyme (Lyz) data are from a single experiment, N=8. *) different from Growth, P<0.002
(§2) Overnight cultures of P. aeruginosa PAO1 were diluted 1:100 in MHB and 100 μl/well were incubated with 5 μl of LL-37, GK-7, GL-13, KL-11 or lysozyme (1 mg/ml) in PVC microtiter plates. The plates were incubated for 6 h at 32° C. under aerobic or reduced oxygen conditions. Bacterial growth was quantitated spectrophotometrically at 570 nm. Twenty-five μl of 1% crystal violet in dH2O was added to each well and incubated 20 min at room temperature. The wells were emptied and washed three times in dH2O and then incubated for 30 min with 200 μl of 95% ethanol. The OD at 570 nm was determined as a measure of biofilm formation. Growth and biofilm values were normalized against the mean of samples incubated with 0.01% acetic acid without peptides.
as §2, with “μl of the bacterial suspension was mixed” for “μl/well were incubated”, “50 μg/ml” for “5 μl”, “lysozyme” for “lysozyme (1 mg/ml)”

[4] = tested on: P. aeruginosa with RAW 264.7 macrophage cells; experiment: Gentamicin protection assay (phagocytosis / clearance by macrophages); format: cell-based, mouse; settings: 100 μg/ml peptide
Description: FIG. 13. Phagocytosis of P. aeruginosa: Bacteria (5×10^8 CFU/ml) were incubated with buffer (Blk), GK-7 or GL-13 (100 μg/ml) for 1 h and added to RAW cells for 2 h. The RAW cells were washed and incubated with […] for 90 min. The cells were lysed in 1% Tween-20 and the diluted contents plated on agar. CFU were enumerated and expressed relative to the mean of the blank in each of three experiments (N=9) *) P=0.025.
Overnight cultures of P. aeruginosa were diluted 1:5 in PBS and incubated for 1 h at room temperature with PSP peptides (100 μg/ml) or with an equivalent amount of 0.01% acetic acid. Aliquots (500 μl) of these samples were added to RAW 264.7 macrophage cells cultured in 24-well plates and incubated for 2 h at 37° C., 5% CO2. The cells were washed in DMEM and then incubated with DMEM containing 200 μg/ml Gentamicin for 90 min at 37° C., 5% CO2. The cells were again washed with DMEM and the incubated with 200 μl/well of PBS containing 1% Tween 20 for 5 min at room temperature. The cell extracts were diluted in LB and plated on LB agar plates. CFU were enumerated after overnight incubation at 37° C.

[5] = tested on: LPS-binding protein (LBP); experiment: Inhibition of LPS binding to LPS-binding protein (ELISA)
Description: Analysis of the PSP sequence indicated three possible regions of biological activity. Initially, three peptides corresponding to the PSP sequence in these regions were designed and used in these studies. The initial step in the inflammatory cascade is the binding of LPS to LPS-binding protein. This binding was inhibited by preincubation of LPS with each of the three peptides. […] The binding of LPS to LPB was analyzed to ELISA. 0% inhibition (100% binding) was determined in the absence of inhibitors while 100% inhibition was determined in the presence of the inhibitor polymyxin B. The inhibition of each peptide is determined relative to the effect of polymyxin B.

[6] = tested on: RAW 264.7 macrophage cells; experiment: LPS-induced TNFα secretion (ELISA); format: cell-based, mouse; settings: P. aeruginosa LPS
Description: as §1
In the present experiments, the redesigned PSP peptides (GL13, KL11) were tested for their effect on TNFα secretion and compared to GK7.

Substance: GQIINLKASLDLL-NH2 [GL13-NH2, GQIINLKASLDLL-(CONH2)]
- TNFα secretion with peptide alone (RAW 264.7 cells [1]): did not stimulate TNFα secretion
- lethality after intra-peritoneal injection (C57BL/6 mice): did not cause lethality
- cell death of RAW 264.7 macrophages, trypan blue (RAW 264.7 cells [2]): did not stimulate TNFα secretion or cause macrophage cell death; also recorded: did not cause cell death; also recorded: not cytotoxic to macrophages
- hemagglutination (words) (sheep red blood cells): caused passive hemagglutination
- hemagglutination (words) (sheep red blood cells; listed as GL-13-NH2): caused hemagglutination
- toxicity [3]: low toxicity

Substance: GQIINLK [GK7, GQIINLK]
- infection of lettuce leaves (P. aeruginosa): neither GK-7 nor LL37 showed a significant effect on infection
- bacterial growth in biofilm/adhesion assay (P. aeruginosa PAO1): affected neither growth nor adhesion
- biofilm formation / adhesion (P. aeruginosa PAO1): affected neither growth nor adhesion
- bacterial clearance / phagocytosis [4]: had no effect on clearance
- TNFα secretion with peptide alone (RAW 264.7 cells [1]): small increase in TNFα secretion
- hemagglutination (words) (sheep red blood cells): did not cause hemagglutination

Substance: polymyxin B [reference compound]
- effect on LPS binding to LBP [5]: Strong inhibition
- inhibition of LPS-induced TNFα secretion [6]: about 50%
- TNFα secretion with peptide alone (RAW 264.7 cells [1]; no LPS stimulation): exhibited toxicity to RAW cells, as evidenced by increased TNFα release
- hemagglutination (words) (sheep red blood cells): did not cause hemagglutination
